Source: ChEMBL document CHEMBL1137021, “The phenolic diterpene totarol inhibits multidrug efflux pump activity in Staphylococcus aureus” (Antimicrob Agents Chemother, 2007)
In brackets after ≈: the same amount, converted by molar mass. Activity calls are given as the source filed them. The rule behind the calls is not given here.

Columns and labels:
[1] = tested on: Staphylococcus aureus; assay: Antimicrobial activity against Staphylococcus aureus NCTC 8325-4 expressing NorA gene; type: functional
[2] = tested on: Staphylococcus aureus; assay: Antimicrobial activity against NorA deficient Staphylococcus aureus K1758; type: functional
[3] = tested on: Staphylococcus aureus; assay: Antimicrobial activity against Staphylococcus aureus K3092 overexpressing NorA gene; type: functional
[4] = tested on: Staphylococcus aureus; assay: Antimicrobial activity against totarol-resistant Staphylococcus aureus K3090; type: functional
[5] = target: T1, Quinolone resistance protein NorA (Staphylococcus aureus, UniProt P0A0J7); assay: Inhibition of NorA efflux pump in Staphylococcus aureus K3092 assessed as inhibition of EtBr efflux
T1 sequence (P0A0J7 whole entry): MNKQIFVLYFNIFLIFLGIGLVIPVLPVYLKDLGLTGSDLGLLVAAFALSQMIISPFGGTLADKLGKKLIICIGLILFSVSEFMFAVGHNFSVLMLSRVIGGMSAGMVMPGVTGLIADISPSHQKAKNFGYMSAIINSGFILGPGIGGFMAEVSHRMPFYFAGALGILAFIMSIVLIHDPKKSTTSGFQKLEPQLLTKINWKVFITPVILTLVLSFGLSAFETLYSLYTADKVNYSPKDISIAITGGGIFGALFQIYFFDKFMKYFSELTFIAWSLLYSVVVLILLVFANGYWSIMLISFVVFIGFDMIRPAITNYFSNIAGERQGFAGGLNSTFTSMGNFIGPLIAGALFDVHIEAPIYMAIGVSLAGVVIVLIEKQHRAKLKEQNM

[6] = target: T2, Quinolone resistance protein NorA (Staphylococcus aureus) (UniProt P0A0J7); assay: Inhibition of NorA efflux pump in Staphylococcus aureus 1199B assessed as reduction in ethidium bromide MIC
T2 sequence (whole entry): T1 sequence (P0A0J7 whole entry)

[7] = tested on: Staphylococcus aureus; assay: Antimicrobial activity against Staphylococcus aureus 1199B expressing NorA pump; type: functional, organism-based
[8] = tested on: Plasmodium falciparum; assay: Antiplasmodial activity against chloroquine-resistant Plasmodium falciparum; type: functional, organism-based
[9] = target: T2, Quinolone resistance protein NorA (Staphylococcus aureus); assay: Inhibition of NorA efflux pump in Staphylococcus aureus K3092 assessed as reduction in ethidium bromide MIC
[10] = tested on: Staphylococcus aureus; assay: Antimicrobial activity against Staphylococcus aureus ATCC 25923; type: functional
[11] = tested on: Staphylococcus aureus; assay: Inhibition of tetK efflux pump in Staphylococcus aureus XU212 assessed as reduction in tetracycline MIC at 1 ug/ml
[12] = target: T2, Quinolone resistance protein NorA (Staphylococcus aureus); assay: Inhibition of NorA efflux pump in methicillin-resistant Staphylococcus aureus assessed as reduction in methicillin MIC
[13] = tested on: Staphylococcus aureus; assay: Antimicrobial activity against Staphylococcus aureus RN4220 expressing MsrA protein; type: functional, organism-based
[14] = tested on: Staphylococcus aureus; assay: Antimicrobial activity against Staphylococcus aureus XU212 expressing tetK pump; type: functional, organism-based
[15] = target: T2, Quinolone resistance protein NorA (Staphylococcus aureus); assay: Inhibition of NorA efflux pump in Staphylococcus aureus 1199B assessed as reduction in Norfloxacin MIC at 1 ug/ml
[16] = tested on: Staphylococcus aureus; assay: Inhibition of MsrA efflux pump in Staphylococcus aureus RN4220 assessed as reduction in erythromycin MIC at 1 ug/ml
[17] = target: T2, Quinolone resistance protein NorA (Staphylococcus aureus); assay: Inhibition of NorA efflux pump in Staphylococcus aureus isolate15 assessed as potentiation of oxacillin MIC
[18] = Ratio of inhibition of CHO cells to IC50 for chloroquine-resistant Plasmodium falciparum

Structure (SMILES): CC[n+]1c(-c2ccccc2)c2cc(N)ccc2c2ccc(N)cc21.[Br-] [HOMIDIUM BROMIDE]
- MIC [1]: 6.25 µg/mL
- MIC [2]: 0.63 µg/mL
- MIC [3]: 100 µg/mL
- MIC [4]: 0.63 µg/mL

Structure (SMILES): COC(=O)[C@H]1[C@H]2C[C@@H]3c4[nH]c5cc(OC)ccc5c4CCN3C[C@H]2C[C@@H](OC(=O)c2cc(OC)c(OC)c(OC)c2)[C@@H]1OC [RESERPINE]
- IC50 [5]: 8 µM

Structure (SMILES): CC(C)c1c(O)ccc2c1CC[C@H]1C(C)(C)CCC[C@]21C [TOTAROL]
- Activity [6]: Active
- Activity [7]: Active
- IC50 [8]: 4.29 µM
- Activity [9]: Active
- MIC [1]: 2.5 µg/mL (≈ 8.73 µM)
- MIC [10]: 2 µg/mL (≈ 6.98 µM)
- MIC [2]: 1.25 µg/mL (≈ 4.36 µM)
- IC50 [5]: 15 µM
- fold change (FC) [11]: 4
- MIC [3]: 16 µg/mL (≈ 55.9 µM)
- fold change (FC) [12]: 8
- Activity [13]: Active
- MIC [4]: 16 µg/mL (≈ 55.9 µM)
- Activity [14]: Active
- fold change (FC) [15]: 4
- fold change (FC) [16]: 8
- fold change (FC) [17]: 50
- Ratio [18]: 40
